Legend:
Ab2 fibrils [1] = tested on: T1, Ab2 fibrils; assay: Fibril incubation with CSF, quantitative MS/MS of bound proteins; type: binding, human; parameters: key to Identification status of CSF protein bound: Ab2: *: Identified, but not quantified; —: Not identified in any of the samples; details: for Identification status of CSF protein bound: Ab2: symbol cells; for Relative composition of CSF proteins bound: Ab2: 4:1 w/w CSF protein:fibril
T1 construct: Two structurally distinct fibrils of the Aβ(1–40) peptide associated with AD
Experimental: (§1) Plasma and CSF solutions were centrifuged (40,000 g, 20 min) to remove any aggregates. The protein concentration was determined using 280 nm absorbance assuming 1 Abs = 1 mg/mL. […] Control samples (without fibril material) were prepared similarly. All samples were incubated at room temperature for one hour under gentle agitation. Fibrils and fibril-bound proteins were pelleted by centrifugation at 17,000 g for 30 minutes. The supernatant (175 μL) was removed and the aggregate was re-suspended in 175 μL PBS and pelleted again before further preparation for gel analysis and spin-filter assisted digest for quantitative MS/MS.
(§2) The fibril-protein pellets were transferred to spin-filters (0.22 μm), washed twice in PBS (100 μL) and once in 1 M NaCl (100 μL). The fibrils and fibril-bound proteins were dissolved by one-hour incubation in 100 μL 6 M guanidinium chloride followed by elution from the spin-filter. The eluted proteins were loaded onto a 3 kDa MWCO filter unit for filter-assisted unfolding, reduction, alkylation, and trypsin digestion. In brief, samples were washed twice in 8 M urea, once in 8 M urea with 50 mM DTT, once in 8 M urea with 50 mM iodoaceteamide, and twice in 8 M Urea. The filter units were dried by centrifugation (14,000 g in 30 minutes) after every addition. Trypsin digestion was carried out with 0.25 μg sequencing grade trypsin from Sigma Aldrich in 50 mM ammonium bicarbonate overnight at 37 °C. The tryptic peptides were collected by centrifugation, acidified with TFA (0.1%) and micro-purified using POROS R2 column material (Applied Biosystems) packed in P200 pipette tips (Sarstedt).
(§3) LC-MS/MS analyses were performed on an EASY-nLC II system (Thermo Fisher Scientific) connected to a TripleTOF 5600+ mass spectrometer (Sciex) equipped with a NanoSpray III source (Sciex) and operated under Analyst TF 1.6.0 control.
(§4) The micro-purified tryptic peptides were dissolved in 0.1% formic acid, injected and trapped on an in-house packed trap column (2 cm × 100 μm I.D) with RP ReproSil-Pur C18-AQ 3 μm resin (Dr. Maisch GmbH). Peptides were eluted from the trap column and separated on a 15 cm analytical column (75 μm i.d.) packed in-house in a pulled emitter with RP ReproSil-Pur C18-AQ 3 μm resin (Dr. Maisch GmbH). Elution from the analytical column was performed with a linear gradient from 5% to 35% phase B (90% acetonitrile with 0.1% formic acid) over 20 min for protein identification and 50 min for quantitative analysis, respectively.
(§5) All samples were analysed three times, yielding nine MS/MS experiments for each fibril for both plasma and CSF. For the area-based extracted ion chromatogram (XIC) quantification, the acquisition method was set up as an information-dependent acquisition (IDA) experiment collecting up to 25 MS/MS spectra in each 1.6 sec cycle using an exclusion window of 6 sec.
(§6) XIC quantification was based on the average ion intensity of the three most abundant peptides for each protein. Only proteins quantified in at least four out of nine MS/MS experiments per fibril were included in the quantification. The total ion scores were visualized after grouping the proteins according to function (Figure S11).
(§7) For each MS/MS experiment, the ion intensities of the individual proteins were normalized to the total ion intensity of that MS/MS experiment to achieve a relative protein composition. The contribution of each protein was averaged over all nine MS/MS experiments (Tables 1 and 2).

glucagon fibrils [2] = molecular target: T2, glucagon fibrils (Homo sapiens, UniProt P01275); assay: Fibril incubation with plasma, quantitative MS/MS of bound proteins; type: binding; details: 50:1 w/w plasma protein:fibril
T2 construct: fibrils of the peptide hormone glucagon
Experimental: as §1, §2, §3, §4, §5, §6, §7

αSN fibrils [3] = molecular target: T3, αSN fibrils (Homo sapiens, UniProt P37840); assay: Fibril incubation with CSF, quantitative MS/MS of bound proteins; type: binding; parameters: key to Identification status of CSF protein bound: αSN: *: Identified, but not quantified; —: Not identified in any of the samples; details: for Identification status of CSF protein bound: αSN: symbol cells; for Relative composition of CSF proteins bound: αSN: 4:1 w/w CSF protein:fibril
Experimental: as §1, §2, §3, §4, §5, §6, §7

Ab1 fibrils [4] = tested on: T4, Ab1 fibrils; assay: as above; type: binding, human; details: 4:1 w/w CSF protein:fibril
T4 construct: Synthetic amyloid β peptide 1–40 was purchased from Caslo Aps (Lyngby, Denmark); purchased Caslo Aps (Lyngby, Denmark); host or cells: synthetic peptide
Experimental: as §1, §2, §3, §4, §5, §6, §7

FAS4-AD aggregates [5] = tested on: T5, FAS4-AD aggregates; assay: Fibril incubation with plasma, quantitative MS/MS of bound proteins; type: binding, human; parameters: key to Identification status of plasma protein bound: FAS4-AD: *: Identified, but not quantified; —: Not identified in any of the samples; details: for Relative composition of plasma proteins bound: FAS4-AD: 50:1 w/w plasma protein:fibril; for Identification status of plasma protein bound: FAS4-AD: symbol cells
T5 construct: aggregates of a mutated version of the FAS1-4 domain of TGFBIp
Experimental: as §1, §2, §3, §4, §5, §6, §7

FAS4-AD aggregates [6] = tested on: T5, FAS4-AD aggregates; assay: Fibril incubation with CSF, quantitative MS/MS of bound proteins; type: binding, human; parameters: key to Identification status of CSF protein bound: FAS4-AD: *: Identified, but not quantified; —: Not identified in any of the samples; details: for Identification status of CSF protein bound: FAS4-AD: symbol cells; for Relative composition of CSF proteins bound: FAS4-AD: 4:1 w/w CSF protein:fibril
Experimental: as §1, §2, §3, §4, §5, §6, §7

C-36 fibrils [7] = molecular target: T6, C-36 fibrils (Homo sapiens, UniProt P01009); assay: Fibril incubation with plasma, quantitative MS/MS of bound proteins; type: binding; details: 50:1 w/w plasma protein:fibril
T6 construct: the 36 residue C-terminal fragment of α1-antitrypsin (C-36)
Experimental: as §1, §2, §3, §4, §5, §6, §7

αSN fibrils [8] = molecular target: T3, αSN fibrils; assay: as above; type: binding; parameters: key to Identification status of plasma protein bound: αSN: *: Identified, but not quantified; —: Not identified in any of the samples; details: for Relative composition of plasma proteins bound: αSN: 50:1 w/w plasma protein:fibril; for Identification status of plasma protein bound: αSN: symbol cells
Experimental: as §1, §2, §3, §4, §5, §6, §7

C-36 fibrils [9] = molecular target: T6, C-36 fibrils; assay: Fibril incubation with CSF, quantitative MS/MS of bound proteins; type: binding; parameters: key to Identification status of CSF protein bound: C-36: *: Identified, but not quantified; —: Not identified in any of the samples; details: for Relative composition of CSF proteins bound: C-36: 4:1 w/w CSF protein:fibril
Experimental: as §1, §2, §3, §4, §5, §6, §7

Ab2 fibrils [10] = tested on: T1, Ab2 fibrils; assay: Fibril incubation with plasma, quantitative MS/MS of bound proteins; type: binding, human; details: 50:1 w/w plasma protein:fibril
Experimental: as §1, §2, §3, §4, §5, §6, §7

Ab1 fibrils [11] = tested on: T4, Ab1 fibrils; assay: as above; type: binding, human; details: 50:1 w/w plasma protein:fibril
Experimental: Plasma and CSF solutions were centrifuged (40,000 g, 20 min) to remove any aggregates. The protein concentration was determined using 280 nm absorbance assuming 1 Abs = 1 mg/mL. […] Control samples (without fibril material) were prepared similarly. All samples were incubated at room temperature for one hour under gentle agitation. Fibrils and fibril-bound proteins were pelleted by centrifugation at 17,000 g for 30 minutes. The supernatant (175 μL) was removed and the aggregate was re-suspended in 175 μL PBS and pelleted again before further preparation for gel analysis and spin-filter assisted digest for quantitative MS/MS.
as §2, §3, §4, §5, §6, §7

glucagon fibrils [12] = molecular target: T2, glucagon fibrils; assay: Fibril incubation with CSF, quantitative MS/MS of bound proteins; type: binding; details: 4:1 w/w CSF protein:fibril
Experimental: as §1, §2, §3, §4, §5, §6, §7

T6 sequence (P01009 383-418 limits assumed): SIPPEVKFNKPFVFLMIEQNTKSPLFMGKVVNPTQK
T2 sequence (P01275 53-81 limits assumed): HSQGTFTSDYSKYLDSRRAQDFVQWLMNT

Substance	Identification status of CSF protein bound: Ab2 (Ab2 fibrils [1])	Relative composition of plasma proteins bound: Glucagon (glucagon fibrils [2])	Identification status of CSF protein bound: αSN (αSN fibrils [3])	Relative composition of CSF proteins bound: Ab1 (Ab1 fibrils [4])	Relative composition of plasma proteins bound: FAS4-AD (FAS4-AD aggregates [5])	Identification status of CSF protein bound: FAS4-AD (FAS4-AD aggregates [6])	Relative composition of plasma proteins bound: C-36 (C-36 fibrils [7])	Relative composition of plasma proteins bound: αSN (αSN fibrils [8])	Relative composition of CSF proteins bound: C-36 (C-36 fibrils [9])	Relative composition of plasma proteins bound: Ab2 (Ab2 fibrils [10])	Relative composition of plasma proteins bound: Ab1 (Ab1 fibrils [11])	Relative composition of CSF proteins bound: Glucagon (glucagon fibrils [12])	Relative composition of CSF proteins bound: Ab2 (Ab2 fibrils [1])	Relative composition of CSF proteins bound: αSN (αSN fibrils [3])	Relative composition of CSF proteins bound: FAS4-AD (FAS4-AD aggregates [6])	Identification status of plasma protein bound: αSN (αSN fibrils [8])	Relative composition of CSF proteins bound: FAS4-AD (FAS4-AD aggregates [6]; listed as clusterin)	Identification status of plasma protein bound: FAS4-AD (FAS4-AD aggregates [5])	Identification status of CSF protein bound: C-36 (C-36 fibrils [9]; symbol cells)
Apolipoprotein A-II: plasma/CSF protein bound to fibrils	*	6.2 ± 0.6 % of total protein	—	1.0 ± 0.3 % of total protein	1.8 ± 0.2 % of total protein	—	1.9 ± 0.5 % of total protein	0.9 ± 0.3 % of total protein	0.9 ± 0.1 % of total protein	1.2 ± 0.2 % of total protein	1.1 ± 0.2 % of total protein	0.6 ± 0.2 % of total protein							
Apolipoprotein D: plasma/CSF protein bound to fibrils		0.3 ± 0.1 % of total protein		8.7 ± 0.4 % of total protein	1.1 ± 0.1 % of total protein		0.9 ± 0.1 % of total protein		9.0 ± 2.3 % of total protein	0.3 ± 0.0 % of total protein	0.1 ± 0.0 % of total protein	1.8 ± 0.3 % of total protein	11.2 ± 0.6 % of total protein	3.4 ± 0.5 % of total protein	5.7 ± 0.4 % of total protein	*			
Clusterin: plasma/CSF protein bound to fibrils		0.5 ± 0.1 % of total protein		9.4 ± 1.0 % of total protein	7.9 ± 4.2 % of total protein		3.5 ± 0.9 % of total protein	1.6 ± 0.9 % of total protein	8.6 ± 1.7 % of total protein	2.2 ± 1.2 % of total protein	1.1 ± 0.1 % of total protein	2.4 ± 0.6 % of total protein	6.9 ± 1.6 % of total protein	12.2 ± 2.9 % of total protein	22.8 ± 11.2 % of total protein		22.8 % of total protein		
Complement C1s subcomponent: plasma/CSF protein bound to fibrils	*	0.2 ± 0.0 % of total protein	—	0.2 ± 0.0 % of total protein		—	0.4 ± 0.1 % of total protein		0.7 ± 0.2 % of total protein	0.7 ± 0.1 % of total protein	0.3 ± 0.0 % of total protein	0.2 ± 0.0 % of total protein				*		—	
Complement C3: plasma/CSF protein bound to fibrils		2.3 ± 0.2 % of total protein	—	0.3 ± 0.1 % of total protein		—	0.2 ± 0.0 % of total protein			0.6 ± 0.1 % of total protein	0.4 ± 0.0 % of total protein	0.8 ± 0.2 % of total protein	0.3 ± 0.1 % of total protein			*		*	*
Ig γ-1 chain C region: plasma/CSF protein bound to fibrils		1.2 ± 0.2 % of total protein		2.5 ± 0.1 % of total protein	9.5 ± 2.6 % of total protein	*	1.9 ± 0.2 % of total protein	1.9 ± 0.9 % of total protein	1.4 ± 0.2 % of total protein	1.2 ± 0.1 % of total protein	1.1 ± 0.1 % of total protein	1.4 ± 0.5 % of total protein	3.1 ± 0.3 % of total protein	4.2 ± 0.4 % of total protein					

Source: article PMC6405930, “Conservation of the Amyloid Interactome Across Diverse Fibrillar Structures” (Scientific Reports, 2019)
